{
  "source": "patent US20230217925A1",
  "about": "“FENCLORIM SEED TREATMENT AS A BIOSTIMULANT” (THE BOARD TRUSTEES OF THE UNIVERSITY OF ARKANSAS, priority 2022, published 2023)",
  "format_in_all_cases": "in vivo",
  "key": {"[1]": {"test_system": "sixteen of the most common rice cultivars planted in the state of Arkansas", "assay": "Cultivar screening, fenclorim seed treatment, field plots, aerial image groundcover", "settings": "2.5 g fenclorim per kg of seed vs 0; 45 days after emergence; averaged across all cultivars", "protocol": "(§1) An experiment was conducted to screen for the effects of a fenclorim seed treatment across sixteen of the most common rice cultivars planted in the state of Arkansas. The cultivars screened in the study included ten long-grain inbreds, three medium-grain inbreds, and three long-grain hybrids: ‘Diamond’, ‘Jewel’, ‘DG363L’, ‘CLL 15’, ‘CLL 16’, ‘CLL 17’, ‘PVL02’, ‘PVL03’, ‘RTV7231MA’, ‘CLJ 01’, ‘Jupiter’, ‘Titan’, ‘Lynx’, ‘RT753XP’, ‘RT7321FP’, and ‘RT7521FP’. All seeds were treated with a base treatment comprising a standard rice insecticide (i.e., NipsIt®) and fungicide (i.e., a combination of metalaxyl, fludioxonil, carboxin, and thiram) using a commercial seed treater. Additionally, each seed was treated with 0 or 2.5 g fenclorim per kg of seed. Seed was planted on Apr. 19, 2021, utilizing nine-row plots (5.2 m by 3 m). Aerial images were captured using a DJI Mavic Air 2 45 days after emergence, and images were analyzed using Turf Analyzer."}, "Diamond rice": {"test_system": "Diamond rice", "assay": "Diamond rice evaluation in heavy clay soil, drone image groundcover", "settings": "2.5 g fenclorim per kg of seed vs 0, 45 days after emergence", "protocol": "as §1\nAn experiment was conducted to test whether fenclorim seed treatment would influence rice growth in a heavy clay soil. Diamond rice was planted on Apr. 22, 2021, using the same practices as the previous experiment, including a treatment with 0 or 2.5 g fenclorim per kg of seed."}, "rice cultivar Diamond": {"test_system": "rice cultivar Diamond", "assay": "Fenclorim dose-response study, seed treatment (groundcover, shoot numbers)", "settings": "for Shoots (%), percentage of shoot numbers produced by control plants: 30 days after emergence; for Groundcover (%): 45 days after emergence", "protocol": "(§2) On Apr. 17, 2021, an experiment was initiated to identify the best rate at which to apply fenclorim as a rice seed treatment. The experiment was conducted using four rice cultivars (Diamond, Titan, RT7521FP, and RT7321FP) and 5 rates of the fenclorim (0, 0.625, 1.25, 2.5, and 5 g/kg seed). Seeds were treated using the aforementioned methods with all seeds having the same base seed treatment. […] At 2.5 g fenclorim per kg of seed, there was a 22% increase (averaged across cultivars) in groundcover compared to the no fenclorim treatment at 45 days after emergence. In this study, rice plant heights and shoot numbers were measured 30 days after emergence. The heights of five random plants were measured per plot and shoot numbers were measured in two 0.5 m sections of row."}, "rice cultivar RT7321FP": {"test_system": "rice cultivar RT7321FP", "assay": "Fenclorim dose-response study, seed treatment (groundcover, shoot numbers)", "settings": "for Shoots (%), percentage of shoot numbers produced by control plants: 30 days after emergence; for Groundcover (%): 45 days after emergence", "protocol": "as §2"}, "rice cultivar RT7521FP": {"test_system": "rice cultivar RT7521FP", "assay": "Fenclorim dose-response study, seed treatment (groundcover, shoot numbers)", "settings": "for Shoots (%), percentage of shoot numbers produced by control plants: 30 days after emergence; for Groundcover (%): 45 days after emergence", "protocol": "as §2"}, "rice cultivar Titan": {"test_system": "rice cultivar Titan", "assay": "Fenclorim dose-response study, seed treatment (groundcover, shoot numbers)", "settings": "for Shoots (%), percentage of shoot numbers produced by control plants: 30 days after emergence; for Groundcover (%): 45 days after emergence", "protocol": "as §2"}, "[2]": {"test_system": "four rice cultivars (Diamond, Titan, RT7521FP, and RT7321FP)", "assay": "Fenclorim dose-response study, results over all four cultivars", "settings": "for Increase over control % (groundcover): averaged over all four cultivars, 45 days after emergence", "protocol": "as §2"}, "[3]": {"test_system": "rice seeds of the cultivar Diamond", "assay": "Greenhouse biostimulant experiment", "settings": "2.5 g/kg of seed vs 0, 30 days after emergence, silt loam soil", "protocol": "A greenhouse biostimulant experiment was performed in 2 experimental runs. Fenclorim was applied to rice seed at 0 or 2.5 g/kg of seed. Five rice seeds of the cultivar Diamond were planted in silt loam soil in 4″ diameter pots 0.5″ apart. At least 9 replications were performed per run. At 14 days after emergence, emerged rice was counted and thinned to 3 plants per pot. Data were collected 30 days after emergence. The leaf area of the rice plants in each pot was determined. Groundcover was determined based on the number of green leaf pixels from an overhead image. Shoot (aboveground) and root (belowground) biomass were determined, and total biomass was determined by adding the mass of the roots and shoots."}},
  "data": [
    {"smiles": "Clc1cc(Cl)nc(-c2ccccc2)n1", "note": "[fenclorim, 4,6-dichloro-2-phenylpyrimidine]", "values": [
      {"measurement": "increase in groundcover", "setting": "[1]", "result": 7, "unit": "%"},
      {"measurement": "increase in groundcover", "setting": "Diamond rice", "result": 4, "unit": "%"},
      {"measurement": "Shoots (%), percentage of shoot numbers produced by control plants", "setting": "rice cultivar Diamond; 0.625 g/kg seed", "result": 98.6, "unit": "%"},
      {"measurement": "Groundcover (%)", "setting": "rice cultivar Diamond; 0.625 g/kg seed", "result": 47.3, "unit": "%"},
      {"measurement": "Shoots (%), percentage of shoot numbers produced by control plants", "setting": "rice cultivar Diamond; 1.25 g/kg seed", "result": 111.1, "unit": "%"},
      {"measurement": "Groundcover (%)", "setting": "rice cultivar Diamond; 1.25 g/kg seed", "result": 54.6, "unit": "%"},
      {"measurement": "Shoots (%), percentage of shoot numbers produced by control plants", "setting": "rice cultivar Diamond; 2.5 g/kg seed", "result": 106.9, "unit": "%"},
      {"measurement": "Groundcover (%)", "setting": "rice cultivar Diamond; 2.5 g/kg seed", "result": 54.2, "unit": "%"},
      {"measurement": "Shoots (%), percentage of shoot numbers produced by control plants", "setting": "rice cultivar Diamond; 5.0 g/kg seed", "result": 100, "unit": "%"},
      {"measurement": "Groundcover (%)", "setting": "rice cultivar Diamond; 5.0 g/kg seed", "result": 52.2, "unit": "%"},
      {"measurement": "Shoots (%), percentage of shoot numbers produced by control plants", "setting": "rice cultivar RT7321FP; 0.625 g/kg seed", "result": 115.2, "unit": "%"},
      {"measurement": "Groundcover (%)", "setting": "rice cultivar RT7321FP; 0.625 g/kg seed", "result": 41.2, "unit": "%"},
      {"measurement": "Shoots (%), percentage of shoot numbers produced by control plants", "setting": "rice cultivar RT7321FP; 1.25 g/kg seed", "result": 110.3, "unit": "%"},
      {"measurement": "Groundcover (%)", "setting": "rice cultivar RT7321FP; 1.25 g/kg seed", "result": 46.0, "unit": "%"},
      {"measurement": "Shoots (%), percentage of shoot numbers produced by control plants", "setting": "rice cultivar RT7321FP; 2.5 g/kg seed", "result": 108.4, "unit": "%"},
      {"measurement": "Groundcover (%)", "setting": "rice cultivar RT7321FP; 2.5 g/kg seed", "result": 53.9, "unit": "%"},
      {"measurement": "Shoots (%), percentage of shoot numbers produced by control plants", "setting": "rice cultivar RT7321FP; 5.0 g/kg seed", "result": 112.3, "unit": "%"},
      {"measurement": "Groundcover (%)", "setting": "rice cultivar RT7321FP; 5.0 g/kg seed", "result": 50.3, "unit": "%"},
      {"measurement": "Shoots (%), percentage of shoot numbers produced by control plants", "setting": "rice cultivar RT7521FP; 0.625 g/kg seed", "result": 110.7, "unit": "%"},
      {"measurement": "Groundcover (%)", "setting": "rice cultivar RT7521FP; 0.625 g/kg seed", "result": 51.8, "unit": "%"},
      {"measurement": "Shoots (%), percentage of shoot numbers produced by control plants", "setting": "rice cultivar RT7521FP; 1.25 g/kg seed", "result": 112.4, "unit": "%"},
      {"measurement": "Groundcover (%)", "setting": "rice cultivar RT7521FP; 1.25 g/kg seed", "result": 52.5, "unit": "%"},
      {"measurement": "Shoots (%), percentage of shoot numbers produced by control plants", "setting": "rice cultivar RT7521FP; 2.5 g/kg seed", "result": 108.8, "unit": "%"},
      {"measurement": "Groundcover (%)", "setting": "rice cultivar RT7521FP; 2.5 g/kg seed", "result": 51.2, "unit": "%"},
      {"measurement": "Shoots (%), percentage of shoot numbers produced by control plants", "setting": "rice cultivar RT7521FP; 5.0 g/kg seed", "result": 111.9, "unit": "%"},
      {"measurement": "Groundcover (%)", "setting": "rice cultivar RT7521FP; 5.0 g/kg seed", "result": 55.9, "unit": "%"},
      {"measurement": "Shoots (%), percentage of shoot numbers produced by control plants", "setting": "rice cultivar Titan; 0.625 g/kg seed", "result": 111.1, "unit": "%"},
      {"measurement": "Groundcover (%)", "setting": "rice cultivar Titan; 0.625 g/kg seed", "result": 49.3, "unit": "%"},
      {"measurement": "Shoots (%), percentage of shoot numbers produced by control plants", "setting": "rice cultivar Titan; 1.25 g/kg seed", "result": 110.5, "unit": "%"},
      {"measurement": "Groundcover (%)", "setting": "rice cultivar Titan; 1.25 g/kg seed", "result": 47.3, "unit": "%"},
      {"measurement": "Shoots (%), percentage of shoot numbers produced by control plants", "setting": "rice cultivar Titan; 2.5 g/kg seed", "result": 105.3, "unit": "%"},
      {"measurement": "Groundcover (%)", "setting": "rice cultivar Titan; 2.5 g/kg seed", "result": 48.1, "unit": "%"},
      {"measurement": "Shoots (%), percentage of shoot numbers produced by control plants", "setting": "rice cultivar Titan; 5.0 g/kg seed", "result": 102.4, "unit": "%"},
      {"measurement": "Groundcover (%)", "setting": "rice cultivar Titan; 5.0 g/kg seed", "result": 50.6, "unit": "%"},
      {"measurement": "rice plant heights", "setting": "[2]; 0.625-5 g/kg seed vs 0, 30 days after emergence, five random plants per plot", "result": "not influenced"},
      {"measurement": "shoot number, effect as the seed treatment rate increased", "setting": "[2]; 0.625-5 g/kg seed vs 0, 30 days after emergence, two 0.5 m sections of row", "result": "an increase in shoot number was observed"},
      {"measurement": "Increase over control % (groundcover)", "setting": "[2]; 0.625 g/kg seed", "result": 12, "unit": "%"},
      {"measurement": "Increase over control % (groundcover)", "setting": "[2]; 1.25 g/kg seed", "result": 18, "unit": "%"},
      {"measurement": "Increase over control % (groundcover)", "setting": "[2]; 2.5 g/kg seed", "result": 22, "unit": "%"},
      {"measurement": "Increase over control % (groundcover)", "setting": "[2]; 5.0 g/kg seed", "result": 23, "unit": "%"},
      {"measurement": "increase in aboveground biomass", "setting": "[3]", "result": 14, "unit": "%"},
      {"measurement": "increase in belowground biomass", "setting": "[3]", "result": 63, "unit": "%"},
      {"measurement": "increase in groundcover", "setting": "[3]", "result": 15, "unit": "%"},
      {"measurement": "increase in leaf area", "setting": "[3]", "result": 23, "unit": "%"},
      {"measurement": "increase in total biomass", "setting": "[3]", "result": 40, "unit": "%"}
    ]}
  ]
}
